Where a name gives a salt, the structure may show the parent alone.
Assays:
[1] = Hygroscopicity evaluation (DVS) of salts of compound I-18; assay type: physicochemical; details: 25° C.
Experimental: To investigate the solid form stability as a function of humidity, DVS isotherm plot of the K salt, Arginine salt, Choline salt and Tris salt were collected at 25° C. between 0 and 95% RH.

[2] = Physical and chemical stability of salts of compound I-18; assay type: physicochemical; details: for Area (%) of peak at RRT 1.00: main peak; for Area (%) of peak at RRT 1.17: peak corresponds to I-1 formed by hydrolysis; for Initial purity: before storage
Experimental: The physical and chemical stability of the K salt, Arginine salt, Choline salt and Tris salt were evaluated under conditions of 25° C./60% RH and 40° C./75% RH for 1 week. Each sample was added into 3 mL glass vials, sealed by parafilm with several holes, and kept under tested condition. After one week, samples was taken for XRPD and HPLC purity test.

[3] = 25° C./60% RH, 1 week, listed as tris salt
[4] = 40° C./75% RH, 1 week, listed as tris salt
[5] = 25° C./60% RH, 1 week, listed as potassium salt
[6] = 40° C./75% RH, 1 week, listed as potassium salt
[7] = Initial, listed as potassium salt
[8] = 25° C./60% RH, 1 week, listed as arginine salt
[9] = 40° C./75% RH, 1 week, listed as arginine salt
[10] = Initial, listed as arginine salt
[11] = 25° C./60% RH, 1 week, listed as choline salt
[12] = 25° C./60% RH/1 week, listed as Choline salt
[13] = 40° C./75% RH, 1 week, listed as choline salt
[14] = Initial, listed as choline salt

## CCO[C@H]1CC[C@H](n2cc(NC(=O)c3csc(-c4cnn(C(C)OP(=O)(O)O)c4)n3)c(-c3nc(F)ccc3F)n2)CC1 (some centres unmarked) [Compound I-49, 1-(4-(4-((3-(3,6-difluoropyridin-2-yl)-1-((1r, 4r)-4-ethoxycyclohexyl)-1H-pyrazol-4-yl)carbamoyl)thiazol-2-yl)-1H-pyrazol-1-yl)ethyl dihydrogen phosphate tris salt]
[1]; at 70% RH, listed as Tris salt
  water uptake (DVS): 6.06%
[1]; at 95% RH, listed as Tris salt
  water uptake (DVS): 39.5%
[2]; 25° C./60% RH, 1 week
  Area (%) of peak at RRT 1.13: 0.06%
[2]; [3]
  Area (%) of peak at RRT 0.77: <0.03%
  Area (%) of peak at RRT 1.45: 0.35%
  Area (%) of peak at RRT 1.71: 0.80%
  Area (%) of peak at RRT 1.73: 0.55%
  HPLC purity change: no HPLC purity decrease
  Area (%) of peak at RRT 1.00: 96.61%
  Area (%) of peak at RRT 1.17: 1.63%
[2]; 25° C./60% RH/1 week, listed as Tris salt
  Form change (XRPD): no form change and No
[2]; [4]
  Area (%) of peak at RRT 0.77: 0.03%
  Area (%) of peak at RRT 1.45: 0.47%
  Area (%) of peak at RRT 1.71: 0.88%
  Area (%) of peak at RRT 1.73: 0.84%
  HPLC purity change: a purity decrease was observed
  Area (%) of peak at RRT 1.00: 95.03%
  Area (%) of peak at RRT 1.17: 2.69%
[2]; 40° C./75% RH/1 week, listed as Tris salt
  Form change (XRPD): no form change and No
[2]; Initial, listed as tris salt
  Area (%) of peak at RRT 0.77: <0.03%
  Area (%) of peak at RRT 1.13: 0.07%
  Area (%) of peak at RRT 1.45: 0.37%
  Area (%) of peak at RRT 1.71: 0.86%
  Area (%) of peak at RRT 1.73: 0.76%
  Area (%) of peak at RRT 1.00: 96.06%
  Area (%) of peak at RRT 1.17: 1.87%
[2]; listed as Tris salt
  Initial purity: 96.06 area %

## CCO[C@H]1CC[C@H](n2cc(NC(=O)c3csc(-c4cnn(C(C)OP(=O)(O)O)c4)n3)c(-c3nc(F)ccc3F)n2)CC1 (some centres unmarked) [Compound I-108, potassium 1-(4-(4-((3-(3,6-difluoropyridin-2-yl)-1-((1r, 4r)-4-ethoxycyclohexyl)-1H-pyrazol-4-yl)carbamoyl)thiazol-2-yl)-1H-pyrazol-1-yl)ethyl hydrogen phosphate]
[1]; at 70% RH, listed as K salt
  water uptake (DVS): 0.42%
[1]; at 95% RH, listed as K salt
  water uptake (DVS): 16.5%
[2]; 25° C./60% RH, 1 week
  Area (%) of peak at RRT 1.14: <0.04%
  Area (%) of peak at RRT 1.40: 0.25%
  Area (%) of peak at RRT 1.44: 0.30%
  Area (%) of peak at RRT 1.70: 0.27%
  Area (%) of peak at RRT 1.72: 0.78%
  Area (%) of peak at RRT 1.81: <0.04%
[2]; 25° C./60% RH, 1 week, listed as K salt
  HPLC purity change: slight purity decrease
[2]; [5]
  Area (%) of peak at RRT 1.00: 96.26%
  Area (%) of peak at RRT 1.17: 2.14%
[2]; 25° C./60% RH/1 week, listed as K salt
  Form change (XRPD): no form change and No
[2]; 40° C./75% RH, 1 week
  Area (%) of peak at RRT 1.14: 0.05%
  Area (%) of peak at RRT 1.40: 0.39%
  Area (%) of peak at RRT 1.44: 0.24%
  Area (%) of peak at RRT 1.70: 0.24%
  Area (%) of peak at RRT 1.72: 0.83%
  Area (%) of peak at RRT 1.81: 0.04%
[2]; 40° C./75% RH, 1 week, listed as K salt
  HPLC purity change: slight purity decrease
[2]; [6]
  Area (%) of peak at RRT 1.00: 96.40%
  Area (%) of peak at RRT 1.17: 1.80%
[2]; 40° C./75% RH/1 week, listed as K salt
  Form change (XRPD): a form change was observed and Yes
[2]; Initial
  Area (%) of peak at RRT 1.14: <0.04%
  Area (%) of peak at RRT 1.40: 0.23%
  Area (%) of peak at RRT 1.44: 0.21%
  Area (%) of peak at RRT 1.70: 0.18%
  Area (%) of peak at RRT 1.72: 0.77%
  Area (%) of peak at RRT 1.81: <0.04%
[2]; [7]
  Area (%) of peak at RRT 1.00: 97.27%
  Area (%) of peak at RRT 1.17: 1.33%
[2]; listed as K salt
  Initial purity: 97.27 area %

## CCO[C@H]1CC[C@H](n2cc(NC(=O)c3csc(-c4cnn(C(C)OP(=O)(O)O)c4)n3)c(-c3nc(F)ccc3F)n2)CC1 (some centres unmarked) [Compound I-110, 1-(4-(4-((3-(3,6-difluoropyridin-2-yl)-1-((1r, 4r)-4-ethoxycyclohexyl)-1H-pyrazol-4-yl)carbamoyl)thiazol-2-yl)-1H-pyrazol-1-yl)ethyl dihydrogen phosphate arginine salt]
[1]; at 80% RH
  water uptake (DVS): 1.43%
[1]; from water uptake at 80% RH
  hygroscopicity (DVS): slight hygroscopic
[2]; 25° C./60% RH, 1 week
  Area (%) of peak at RRT 1.13: 0.06%
[2]; [8]
  Area (%) of peak at RRT 0.77: 0.03%
  Area (%) of peak at RRT 1.35: 0.06%
  Area (%) of peak at RRT 1.45: 0.50%
  Area (%) of peak at RRT 1.71: 0.74%
  Area (%) of peak at RRT 1.73: 0.61%
  HPLC purity change: slight purity decrease
  Area (%) of peak at RRT 1.00: 95.31%
  Area (%) of peak at RRT 1.17: 2.68%
[2]; 25° C./60% RH/1 week, listed as Arginine salt
  Form change (XRPD): no form change and No
[2]; 40° C./75% RH, 1 week
  Area (%) of peak at RRT 1.13: 0.06%
[2]; [9]
  Area (%) of peak at RRT 0.77: 0.04%
  Area (%) of peak at RRT 1.35: 0.11%
  Area (%) of peak at RRT 1.45: 0.47%
  Area (%) of peak at RRT 1.71: 0.73%
  Area (%) of peak at RRT 1.73: 0.60%
  HPLC purity change: slight purity decrease
  Area (%) of peak at RRT 1.00: 95.50%
  Area (%) of peak at RRT 1.17: 2.48%
[2]; 40° C./75% RH/1 week, listed as Arginine salt
  Form change (XRPD): no form change and No
[2]; Initial
  Area (%) of peak at RRT 1.35: <0.03%
[2]; [10]
  Area (%) of peak at RRT 0.77: <0.03%
  Area (%) of peak at RRT 1.13: <0.03%
  Area (%) of peak at RRT 1.45: 0.44%
  Area (%) of peak at RRT 1.71: 0.73%
  Area (%) of peak at RRT 1.73: <0.53%
  Area (%) of peak at RRT 1.00: 95.91%
  Area (%) of peak at RRT 1.17: 2.39%
[2]; listed as Arginine salt
  Initial purity: 95.91 area %

## CCO[C@H]1CC[C@H](n2cc(NC(=O)c3csc(-c4cnn(C(C)OP(=O)(O)O)c4)n3)c(-c3nc(F)ccc3F)n2)CC1 (some centres unmarked) [Compound I-111, 1-(4-(4-((3-(3,6-difluoropyridin-2-yl)-1-((1r, 4r)-4-ethoxycyclohexyl)-1H-pyrazol-4-yl)carbamoyl)thiazol-2-yl)-1H-pyrazol-1-yl)ethyl dihydrogen phosphate choline salt]
[1]; at 70% RH, listed as Choline salt
  water uptake (DVS): 3.66%
[1]; at 95% RH, listed as Choline salt
  water uptake (DVS): 32.4%
[2]; [11]
  Area (%) of peak at RRT 0.77: 0.04%
  Area (%) of peak at RRT 1.35: 0.10%
  Area (%) of peak at RRT 1.45: 0.07%
  Area (%) of peak at RRT 1.71: 0.05%
  Area (%) of peak at RRT 1.73: 0.46%
  HPLC purity change: no HPLC purity decrease
  Area (%) of peak at RRT 1.00: 98.66%
  Area (%) of peak at RRT 1.17: 0.58%
[2]; [12]
  Form change (XRPD): no form change and No
  Purity/Initial purity: 100.0%
[2]; [13]
  Area (%) of peak at RRT 0.77: 0.04%
  Area (%) of peak at RRT 1.35: 0.14%
  Area (%) of peak at RRT 1.45: 0.11%
  Area (%) of peak at RRT 1.71: 0.08%
  Area (%) of peak at RRT 1.73: 0.46%
  HPLC purity change: a purity decrease was observed
  Area (%) of peak at RRT 1.00: 97.81%
  Area (%) of peak at RRT 1.17: 1.31%
[2]; 40° C./75% RH/1 week, listed as Choline salt
  Form change (XRPD): no form change and No
[2]; Initial
  Area (%) of peak at RRT 1.35: <0.03%
[2]; [14]
  Area (%) of peak at RRT 0.77: 0.03%
  Area (%) of peak at RRT 1.13: 0.06%
  Area (%) of peak at RRT 1.45: 0.06%
  Area (%) of peak at RRT 1.71: 0.06%
  Area (%) of peak at RRT 1.73: 0.33%
  Area (%) of peak at RRT 1.00: 98.70%
  Area (%) of peak at RRT 1.17: 0.75%
[2]; listed as Choline salt
  Initial purity: 98.70 area %

Source: US12357623B2, “Method for treating a disease or condition using a pyrazole compound or formulation thereof” (Rigel Pharmaceuticals, Inc., priority 2021, dated 2025)
